Laboratory results: ChEMBL document CHEMBL1122047
Several values for one entry are separate records, joined by “and”; a condition that tells them apart may be missing. Equal entries are not always repeated.

Molecular target: Substance-P receptor (Cavia porcellus) (UniProt P30547)
Assay: Relative affinity for Tachykinin receptor 1 compared with [Nle11]-SP

Chain of Substance-P receptor (Cavia porcellus) (P30547 whole entry): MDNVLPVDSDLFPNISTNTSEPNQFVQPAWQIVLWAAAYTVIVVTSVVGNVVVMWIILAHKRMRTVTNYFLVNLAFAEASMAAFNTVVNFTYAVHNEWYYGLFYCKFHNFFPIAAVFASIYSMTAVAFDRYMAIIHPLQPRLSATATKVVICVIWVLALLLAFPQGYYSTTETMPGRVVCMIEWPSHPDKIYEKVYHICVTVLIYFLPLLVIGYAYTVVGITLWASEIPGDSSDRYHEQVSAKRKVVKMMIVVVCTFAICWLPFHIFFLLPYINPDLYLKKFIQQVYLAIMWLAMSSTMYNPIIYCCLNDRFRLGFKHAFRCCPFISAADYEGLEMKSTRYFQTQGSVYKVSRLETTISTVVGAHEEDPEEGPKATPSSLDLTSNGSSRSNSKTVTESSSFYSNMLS

RA	Compound
50%	CCCC[C@H](NC(=O)[C@H](CC(C)C)NC(=O)CNC(=O)[C@H](Cc1ccc(N=[N+]=[N-])cc1)NC(=O)[C@H](Cc1ccccc1)NC(=O)[C@H](CCC(N)=O)NC(=O)[C@H](CCC(N)=O)NC(=O)[C@@H]1CCCN1C(=O)[C@H](CCCCN)NC(=O)[C@@H]1CCCN1C(=O)[C@@H](N)CCCN=C(N)N)C(N)=O
100%	CC(C)C[C@H](NC(=O)CNC(=O)[C@H](Cc1ccccc1)NC(=O)[C@H](Cc1ccccc1)NC(=O)[C@H](CCC(N)=O)NC(=O)[C@H](CCC(N)=O)NC(=O)[C@@H]1CCCN1C(=O)[C@H](CCCCN)NC(=O)[C@@H]1CCCN1C(=O)[C@@H](N)CCCN=C(N)N)C(=O)N[C@@H](Cc1ccccc1)C(N)=O

Second part, the compound before the results:

Compound	RA
CCCC[C@H](NC(=O)[C@H](CC(C)C)NC(=O)CNC(=O)[C@H](Cc1ccccc1)NC(=O)[C@H](Cc1ccc([N+](=O)[O-])cc1)NC(=O)[C@H](CCC(N)=O)NC(=O)[C@H](CCC(N)=O)NC(=O)[C@@H]1CCCN1C(=O)[C@H](CCCCN)NC(=O)[C@@H]1CCCN1C(=O)[C@@H](N)CCCN=C(N)N)C(N)=O	10%
CC(C)C[C@H](NC(=O)CNC(=O)[C@H](Cc1ccccc1)NC(=O)[C@H](Cc1ccccc1)NC(=O)[C@H](CCC(N)=O)NC(=O)[C@H](CCC(N)=O)NC(=O)[C@@H]1CCCN1C(=O)[C@H](CCCCN)NC(=O)[C@@H]1CCCN1C(=O)[C@@H](N)CCCN=C(N)N)C(=O)N[C@@H](Cc1ccc([N+]#N)cc1)C(N)=O	81% and 72%
CCCC[C@H](NC(=O)[C@H](CC(C)C)NC(=O)CNC(=O)[C@H](Cc1ccccc1)NC(=O)[C@H](Cc1ccccc1)NC(=O)[C@H](CCC(N)=O)NC(=O)[C@H](CCC(N)=O)NC(=O)[C@@H]1CCCN1C(=O)[C@H](CCCCN)NC(=O)[C@@H]1CCCN1C(=O)[C@@H](N)CCCN=C(N)N)C(N)=O	100%
CC(C)C[C@H](NC(=O)CNC(=O)[C@H](Cc1ccccc1)NC(=O)[C@H](Cc1ccccc1)NC(=O)[C@H](CCC(N)=O)NC(=O)[C@H](CCC(N)=O)NC(=O)[C@@H]1CCCN1C(=O)[C@H](CCCCN)NC(=O)[C@@H]1CCCN1C(=O)[C@@H](N)CCCN=C(N)N)C(=O)N[C@@H](Cc1ccc(N=[N+]=[N-])cc1)C(N)=O	48% and 50%
CC(C)C[C@H](NC(=O)CNC(=O)[C@H](Cc1ccccc1)NC(=O)[C@H](Cc1ccccc1)NC(=O)[C@H](CCC(N)=O)NC(=O)[C@H](CCC(N)=O)NC(=O)[C@@H]1CCCN1C(=O)[C@H](CCCCN)NC(=O)[C@@H]1CCCN1C(=O)[C@@H](N)CCCN=C(N)N)C(=O)N[C@@H](Cc1ccc(N)cc1)C(N)=O	55% and 69%
